# Patent EP2135604A1, “INFUSION PREPARATION FOR CANCER PATIENT” (Matsui, Hirofumi, priority 2007, dated 2008)
# Assays:
# [1] = system: rat stomach cancer cell line (RGK-37); experiment: Culture in glucose-free, 3% glutamine medium, observation under a microscope; assay type: cell-based; conditions: RGK-37 tumor cells, absence of glucose, 120 hours
# Protocol: (§1) A rat stomach mucous membrane cell line (RGM) and a rat stomach cancer cell line (RGK-37) were cultured in Gibco#11330-032 DMEM/F12 medium and Sigma#D6421 DMEM/F12 medium, respectively. Each culture was cultured in the absence of glucose and in the presence of 3% glutamine for 120 hours. Subsequently, the cells were observed under a microscope.
# [2] = system: rat stomach mucous membrane cell line (RGM); experiment: as above; assay type: cell-based; conditions: RGM non-tumor cells, absence of glucose, 120 hours
# Protocol: as §1
# [3] = system: rat stomach mucous membrane cells; experiment: Chemical carcinogenesis with L-glutamine added to the growth medium; assay type: cell-based; conditions: addition of L-glutamine to the growth medium
# [4] = system: rats infected with Helicobacter pylori; conditions: reported by Patent Document 4; cited from earlier work
# [5] = system: rat stomach cancer cell line (RGK-37); experiment: BrdU uptake (ELISA) at different glucose concentrations in the growth medium; assay type: cell-based; conditions: medium with 0, 0.3 or 1.3 g/L of glucose, 1%FBS, 1% L-glutamine, 24 hours, relative to 3 g/L glucose (= 1)
# Protocol: (§2) A rat stomach mucous membrane cell line (RGM) and a rat stomach cancer cell line (RGK-37) were cultured in Gibco#11330-032 DMEM/F12 medium and L-glutamine-free Sigma#D6421 DMEM/F12 medium, respectively. Each culture was supplemented with 10% FBS and was cultured during the logarithmic growth phase. The growth medium was then replaced with a growth medium containing 0, 0.3 or 1.3 g/L of glucose and supplemented with 1%FBS and 1% L-glutamine. After 24 hours of culturing, bromodeoxyuridine (BrdU) was added to each culture. 2 hours after the addition of BrdU, the BrdU uptake was measured by ELISA. The BrdU uptake for each culture is shown in Fig. 1 relative to the uptake obtained at a glucose concentration of 3 g/L (= 1).
# [6] = system: rat stomach mucous membrane cell line (RGM); experiment: as above; assay type: cell-based; conditions: medium with 0, 0.3 or 1.3 g/L of glucose, 1%FBS, 1% L-glutamine, 24 hours, relative to 3 g/L glucose (= 1)
# Protocol: as §2
# [7] = system: tumor cell lines of rat and human stomach cancer; experiment: Protein levels at decreased glucose levels in the culture medium; assay type: cell-based; conditions: rat stomach cancer tumor cell line; decreasing glucose levels in the culture medium
# [8] = system: tumor cell lines of rat and human stomach cancer; experiment: as above; assay type: cell-based; conditions: human stomach cancer tumor cell line; decreasing glucose levels in the culture medium
# [9] = system: normal stomach mucous cell line of rat; experiment: as above; assay type: cell-based
SMILES,cell survival / apoptosis (microscope) [1],cell survival / apoptosis (microscope) ([1]; listed as glutamine),cell survival (microscope) [2],cell survival (microscope) ([2]; listed as glutamine),chemical carcinogenesis [3],onset of legions resembling stomach cancer [4],BrdU uptake [5],BrdU uptake [6],protein levels [7],protein levels [8],protein levels [9]
NC(=O)CC[C@H](N)C(=O)O [L-glutamine],apoptosis is induced,apoptosis was induced,can survive,survived,suppresses chemical carcinogenesis,ability to suppress the onset of legions resembling stomach cancer,,,,,
OC[C@H]1OC(O)[C@H](O)[C@@H](O)[C@@H]1O (some centres unmarked) [glucose],,,,,,,decreased relatively with decreasing concentrations of glucose,relatively constant,decreased protein levels,decreased protein levels,no changes
